Target: T1, Progesterone receptor (Rattus norvegicus) (UniProt Q63449)
T1 sequence (whole entry): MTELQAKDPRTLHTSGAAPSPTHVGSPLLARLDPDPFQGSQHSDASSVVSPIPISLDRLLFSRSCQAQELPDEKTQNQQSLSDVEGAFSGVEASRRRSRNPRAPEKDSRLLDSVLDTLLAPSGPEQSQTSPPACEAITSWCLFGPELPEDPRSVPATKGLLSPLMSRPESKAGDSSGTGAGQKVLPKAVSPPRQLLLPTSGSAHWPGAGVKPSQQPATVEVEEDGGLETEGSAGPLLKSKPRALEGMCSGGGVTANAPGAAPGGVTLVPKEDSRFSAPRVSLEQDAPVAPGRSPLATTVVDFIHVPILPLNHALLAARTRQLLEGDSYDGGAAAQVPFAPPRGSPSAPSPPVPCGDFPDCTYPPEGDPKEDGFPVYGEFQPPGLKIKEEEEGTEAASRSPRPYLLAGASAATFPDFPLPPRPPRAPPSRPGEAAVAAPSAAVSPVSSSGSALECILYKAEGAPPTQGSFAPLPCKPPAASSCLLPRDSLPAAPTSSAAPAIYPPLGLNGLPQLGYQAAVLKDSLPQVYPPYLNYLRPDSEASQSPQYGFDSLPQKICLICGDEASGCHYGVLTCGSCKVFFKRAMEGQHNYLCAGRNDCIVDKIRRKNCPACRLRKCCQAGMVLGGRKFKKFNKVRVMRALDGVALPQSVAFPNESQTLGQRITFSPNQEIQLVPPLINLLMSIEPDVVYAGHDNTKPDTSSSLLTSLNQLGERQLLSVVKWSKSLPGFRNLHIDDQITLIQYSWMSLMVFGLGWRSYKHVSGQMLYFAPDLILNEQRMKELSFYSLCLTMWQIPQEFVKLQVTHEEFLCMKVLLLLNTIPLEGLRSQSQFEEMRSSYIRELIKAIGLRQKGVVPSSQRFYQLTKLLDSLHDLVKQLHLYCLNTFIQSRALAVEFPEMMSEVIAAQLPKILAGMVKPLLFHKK
Assay: Binding affinity to rat uterus progesterone receptor at 0.01 uM

Structure (SMILES): CC1(C)CC[C@@]2(CC[C@H]3[C@@H]4CCc5ccccc5[C@H]4CC[C@@]32C)OC1=O
- Activity: 0%

Reference: ChEMBL document CHEMBL1153852, “Steroidal lactones as inhibitors of 17beta-hydroxysteroid dehydrogenase type 5: chemical synthesis, enzyme inhibitory activity, and assessment of estrogenic and androgenic activities” (Eur J Med Chem, 2009)
